These results are taken from US12539299B2, “Oral formulation of a therapeutic compound” (ARDELYX, INC., priority 2020, dated 2026).

Data set [1] relates to patients with hyperphosphatemia. Particulars: clinical; cited from earlier work.
The subject of data set [2] is Irritable Bowel Syndrome with Constipation (IBS-C) patients. Particulars: bis-HCl salt form, clinical; cited from earlier work.
Data set [3] is described as follows: Dissolution of capsule and tablet prototypes, USP apparatus II (paddle), 75 rpm, 900 mL media, 37° C. The class given is physicochemical. To be noted: comparison between forms, prototypes or pH. The protocol: FIG. 1: Dissolution of 15 mg tenapanor HCl tablets and tenapanor free base tablets in FeSSIF media pH 5.0. Dissolution method: USP apparatus II (paddle), 75 rpm, 900 mL of media at 37° C. FIG. 2: Dissolution of capsule I, neat tenapanor HCl powder in HPMC capsules (Vcaps® from Capsugel®) in FaSSIF media pH 6.5, FeSSIF media pH 5 and in 0.1N HCl. Dissolution method: USP apparatus II (paddle), 75 rpm, 900 mL of media at 37° C. […] Below are the composition of some of the capsule and tablet formulations as well as maximum dissolution observed in 0.1N HCl, pH 5 FeSSIF media and pH 6 FaSSIF media. Tablets from the same prototype designation differed by tenapanor loading and salt/free-base form but had the same disintegrant, glidant and lubricant excipients in the same % w/w but varied in the % w/w of tenapanor and filler making up the remainder of tablet.

The subject of data set [4] is animal model of IBS-like colonic hypersensitivity. To be noted: cited from earlier work.

As to `CN1Cc2c(Cl)cc(Cl)cc2[C@H](c2cccc(S(=O)(=O)NCCOCCOCCNC(=O)NCCCCNC(=O)NCCOCCOCCNS(=O)(=O)c3cccc([C@@H]4CN(C)Cc5c(Cl)cc(Cl)cc54)c3)c2)C1` [tenapanor, 1-[2-[2-[2-[[3-[(4S)-6,8-dichloro-2-methyl-3,4-dihydro-1H-isoquinolin-4-yl]phenyl]sulfonylamino]ethoxy]ethoxy]ethyl]-3-[4-[2-[2-[2-[[3-[(4S)-6,8-dichloro-2-methyl-3,4-dihydro-1H-isoquinolin-4-yl]phenyl]sulfonylamino]ethoxy]ethoxy]ethylcarbamoylamino]butyl]urea], the serum phosphate result in data set [1] is listed as “lower serum phosphate”. The abdominal pain result in data set [2] is given as “reduce abdominal pain”. Besides, the “dissolution, comparison in words” value in data set [3] is listed as “better dissolution at low pH”. Besides, in data set [4], the “colonic sensory neuronal excitability and TRPV1 currents” value was “normalized colonic sensory neuronal excitability and Transient Receptor Potential Vanilloid 1 (TRPV1) currents”; the visceral hyperalgesia entry is “reduced visceral hyperalgesia”.
